From patent US20240217957A1, “HETEROCYCLIC COMPOUND AND USE THEREOF” (TAKEDA PHARMACEUTICAL COMPANY LIMITED, priority 2022, published 2024)

Target: T1, human OX2 receptor (Homo sapiens, UniProt O43614)
T1 construct: expressed in transfected cells
T1 sequence (O43614 1-444): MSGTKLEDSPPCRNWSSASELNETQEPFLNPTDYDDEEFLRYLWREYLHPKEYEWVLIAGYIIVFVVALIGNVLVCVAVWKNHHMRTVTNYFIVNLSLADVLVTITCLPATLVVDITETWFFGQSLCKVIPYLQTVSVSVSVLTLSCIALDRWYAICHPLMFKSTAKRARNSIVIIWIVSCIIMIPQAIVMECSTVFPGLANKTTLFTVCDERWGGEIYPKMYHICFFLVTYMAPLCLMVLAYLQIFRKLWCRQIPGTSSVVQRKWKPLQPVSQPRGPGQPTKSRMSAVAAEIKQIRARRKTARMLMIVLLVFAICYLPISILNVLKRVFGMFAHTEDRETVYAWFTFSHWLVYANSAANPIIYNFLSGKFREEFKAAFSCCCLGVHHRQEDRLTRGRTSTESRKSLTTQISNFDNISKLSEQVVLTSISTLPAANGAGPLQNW
Experiment: Measurement of orexin type 2 receptor agonist activity (calcium fluorescence, Fluo-4 AM, FDSS)
Type: cell-based
Settings: compound at 3 μM; CHO cells forcibly expressing human OX2 receptor; DMSO = 0%, 10 nM orexin A (human) = 100%
Summary of the method: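 Agonist response is expressed as % of the fluorescence change given by 10 nM human orexin A, with DMSO as 0%, read over 1 min 40 s on FDSS after compound addition. Cells: stable human OX2 (1-444) CHO-K1 clones, dye-loaded with Fluo-4 AM plus probenecid in HEPES-buffered HBSS with 0.1% BSA.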

OX2R agonist activity (3 μM, %)	Compound
102%	CS(=O)(=O)N[C@@H]1CN(C2=NOC(c3ccc(F)cc3-c3c(F)cccc3F)C2)CC1(F)F (stereo partly drawn) [Example 111, N-{(3R)-4,4-difluoro-1-[5-(2′,5,6′-trifluoro[1,1′-biphenyl]-2-yl)-4,5-dihydro-1,2-oxazol-3-yl]pyrrolidin-3-yl}methanesulfonamide]
98%	CS(=O)(=O)N[C@@H]1CN(C2=NOC(c3ncc(Cl)cc3-c3c(F)cc(F)cc3F)C2)C[C@@H]1F (stereo partly drawn) [Example 112, N-[(3R,4S)-1-{5-[5-chloro-3-(2,4,6-trifluorophenyl)pyridin-2-yl]-4,5-dihydro-1,2-oxazol-3-yl}-4-fluoropyrrolidin-3-yl]methanesulfonamide]
100%	CS(=O)(=O)N[C@@H]1CN(C2=NOC(CF)(c3ncc(F)cc3-c3c(F)cc(F)cc3F)C2)C[C@@H]1F (stereo partly drawn) [Example 113, N-[(3R,4S)-4-fluoro-1-{5-(fluoromethyl)-5-[5-fluoro-3-(2,4,6-trifluorophenyl)pyridin-2-yl]-4,5-dihydro-1,2-oxazol-3-yl}pyrrolidin-3-yl]methanesulfonamide]
87%	Cc1ccc(C2CC(N3C[C@@H](NS(C)(=O)=O)C(F)(F)C3)=NO2)c(-c2c(F)cccc2F)n1 (stereo partly drawn) [Example 114, N-[(3R)-1-{5-[2-(2,6-difluorophenyl)-6-methylpyridin-3-yl]-4,5-dihydro-1,2-oxazol-3-yl}-4,4-difluoropyrrolidin-3-yl]methanesulfonamide]
100%	CCS(=O)(=O)N[C@@H]1CN(C2=NOC(CF)(c3ncc(Cl)cc3-c3c(F)cccc3F)C2)C[C@@H]1F (stereo partly drawn) [Example 115, N-[(3R,4S)-1-{5-[5-chloro-3-(2,6-difluorophenyl)pyridin-2-yl]-5-(fluoromethyl)-4,5-dihydro-1,2-oxazol-3-yl}-4-fluoropyrrolidin-3-yl]ethanesulfonamide]
100%	CS(=O)(=O)N[C@@H]1CN(C2=NOC(CF)(c3ncc(F)cc3-c3c(F)cccc3F)C2)C[C@@H]1F (stereo partly drawn) [Example 116, N-[(3R,4S)-1-{5-[3-(2,6-difluorophenyl)-5-fluoropyridin-2-yl]-5-(fluoromethyl)-4,5-dihydro-1,2-oxazol-3-yl}-4-fluoropyrrolidin-3-yl]methanesulfonamide]
100%	CC1(c2ncc(F)cc2-c2c(F)cccc2F)CC(N2C[C@H](F)[C@H](NS(C)(=O)=O)C2)=NO1 (stereo partly drawn) [Example 118, N-[(3R,4S)-1-{5-[3-(2,6-difluorophenyl)-5-fluoropyridin-2-yl]-5-methyl-4,5-dihydro-1,2-oxazol-3-yl}-4-fluoropyrrolidin-3-yl]methanesulfonamide]
101%	CS(=O)(=O)N[C@@H]1CN(C2=NOC(c3ccc(F)cc3-c3c(F)cccc3F)C2)C[C@@H]1F (stereo partly drawn) [Example 119, N-{(3R,4S)-4-fluoro-1-[5-(2′,5,6′-trifluoro[1,1′-biphenyl]-2-yl)-4,5-dihydro-1,2-oxazol-3-yl]pyrrolidin-3-yl}methanesulfonamide]
102%	CN(C)S(=O)(=O)N[C@@H]1CN(C2=NOC(c3ncc(F)cc3-c3c(F)cc(F)cc3F)C2)C[C@@H]1F (stereo partly drawn) [Example 120, N′-[(3R,4S)-4-fluoro-1-{5-[5-fluoro-3-(2,4,6-trifluorophenyl)pyridin-2-yl]-4,5-dihydro-1,2-oxazol-3-yl}pyrrolidin-3-yl]-N,N-dimethylsulfuric diamide]
98%	CN(C)S(=O)(=O)N[C@@H]1CN(C2=NOC(c3ncc(Cl)cc3-c3c(F)cccc3F)C2)C[C@@H]1F (stereo partly drawn) [Example 121, N′-[(3R,4S)-1-{5-[5-chloro-3-(2,6-difluorophenyl)pyridin-2-yl]-4,5-dihydro-1,2-oxazol-3-yl}-4-fluoropyrrolidin-3-yl]-N,N-dimethylsulfuric diamide]
102%	CC1(c2ncc(F)cc2-c2c(F)cccc2F)CC(N2CC[C@H](NS(C)(=O)=O)C2)=NO1 (stereo partly drawn) [Example 122, N-[(3S)-1-{5-[3-(2,6-difluorophenyl)-5-fluoropyridin-2-yl]-5-methyl-4,5-dihydro-1,2-oxazol-3-yl}pyrrolidin-3-yl]methanesulfonamide]
100%	CN(C)S(=O)(=O)N[C@@H]1CN(C2=NOC(c3ccc(Cl)cc3-c3ncc(F)cc3F)C2)C[C@@H]1F (stereo partly drawn) [Example 123, N′-[(3R,4S)-1-{5-[4-chloro-2-(3,5-difluoropyridin-2-yl)phenyl]-4,5-dihydro-1,2-oxazol-3-yl}-4-fluoropyrrolidin-3-yl]-N,N-dimethylsulfuric diamide]
97%	Cc1ccc(C2CC(N3C[C@H](F)[C@H](NS(C)(=O)=O)C3)=NO2)c(-c2ncc(F)cc2F)c1 (stereo partly drawn) [Example 124, N-[(3R,4S)-1-{5-[2-(3,5-difluoropyridin-2-yl)-4-methylphenyl]-4,5-dihydro-1,2-oxazol-3-yl}-4-fluoropyrrolidin-3-yl]methanesulfonamide]
104%	Cc1ccc(C2CC(N3C[C@H](F)[C@H](NS(=O)(=O)N(C)C)C3)=NO2)c(-c2ncc(F)cc2F)c1 (stereo partly drawn) [Example 125, N′-[(3R,4S)-1-{5-[2-(3,5-difluoropyridin-2-yl)-4-methylphenyl]-4,5-dihydro-1,2-oxazol-3-yl}-4-fluoropyrrolidin-3-yl]-N,N-dimethylsulfuric diamide]
98%	CS(=O)(=O)N[C@@H]1CN(C2=NOC(c3ncc(F)cc3-c3c(F)cccc3F)(C(F)F)C2)CC1(F)F (stereo partly drawn) [Example 126, N-[(3R)-1-{5-(difluoromethyl)-5-[3-(2,6-difluorophenyl)-5-fluoropyridin-2-yl]-4,5-dihydro-1,2-oxazol-3-yl}-4,4-difluoropyrrolidin-3-yl]methanesulfonamide]
100%	Cc1cc(-c2c(F)cccc2F)c(C2CC(N3C[C@@H](NS(C)(=O)=O)C(F)(F)C3)=NO2)cn1 (stereo partly drawn) [Example 127, N-[(3R)-1-{5-[4-(2,6-difluorophenyl)-6-methylpyridin-3-yl]-4,5-dihydro-1,2-oxazol-3-yl}-4,4-difluoropyrrolidin-3-yl]methanesulfonamide]
105%	O=S(=O)(CF)N[C@@H]1CN(C2=NO[C@H](c3ncc(F)cc3-c3c(F)cc(F)cc3F)C2)CC1(F)F [Example 128, N-[(3R)-4,4-difluoro-1-{(5S)-5-[5-fluoro-3-(2,4,6-trifluorophenyl)pyridin-2-yl]-4,5-dihydro-1,2-oxazol-3-yl}pyrrolidin-3-yl]-1-fluoromethanesulfonamide]
102%	CS(=O)(=O)N[C@@H]1CN(C2=NOC(CF)(c3ncc(Cl)cc3-c3c(F)cccc3F)C2)C[C@@H]1F (stereo partly drawn) [Example 129, N-[(3R,4S)-1-{5-[5-chloro-3-(2,6-difluorophenyl)pyridin-2-yl]-5-(fluoromethyl)-4,5-dihydro-1,2-oxazol-3-yl}-4-fluoropyrrolidin-3-yl]methanesulfonamide]
104%	CCC1(c2ncc(F)cc2-c2c(F)cccc2F)CC(N2C[C@@H](NS(C)(=O)=O)C(F)(F)C2)=NO1 (stereo partly drawn) [Example 130, N-[(3R)-1-{5-[3-(2,6-difluorophenyl)-5-fluoropyridin-2-yl]-5-ethyl-4,5-dihydro-1,2-oxazol-3-yl}-4,4-difluoropyrrolidin-3-yl]methanesulfonamide]
112%	COCC1(c2ncc(F)cc2-c2c(F)cccc2F)CC(N2C[C@@H](NS(C)(=O)=O)C(F)(F)C2)=NO1 (stereo partly drawn) [Example 131, N-[(3R)-1-{5-[3-(2,6-difluorophenyl)-5-fluoropyridin-2-yl]-5-(methoxymethyl)-4,5-dihydro-1,2-oxazol-3-yl}-4,4-difluoropyrrolidin-3-yl]methanesulfonamide]
110%	CCS(=O)(=O)N[C@@H]1CN(C2=NOC(COC)(c3ncc(F)cc3-c3c(F)cccc3F)C2)C[C@@H]1F (stereo partly drawn) [Example 132, N-[(3R,4S)-1-{5-[3-(2,6-difluorophenyl)-5-fluoropyridin-2-yl]-5-(methoxymethyl)-4,5-dihydro-1,2-oxazol-3-yl}-4-fluoropyrrolidin-3-yl]ethanesulfonamide]
107%	CCS(=O)(=O)N[C@@H]1CN(C2=NOC(c3ncc(Cl)cc3-c3c(F)cccc3F)C2)C[C@@H]1F (stereo partly drawn) [Example 133, N-[(3R,4S)-1-{5-[5-chloro-3-(2,6-difluorophenyl)pyridin-2-yl]-4,5-dihydro-1,2-oxazol-3-yl}-4-fluoropyrrolidin-3-yl]ethanesulfonamide]
103%	Cc1ncc(C2CC(N3C[C@@H](NS(C)(=O)=O)C(F)(F)C3)=NO2)c(-c2c(F)cccc2F)n1 (stereo partly drawn) [Example 134, N-[(3R)-1-{5-[4-(2,6-difluorophenyl)-2-methylpyrimidin-5-yl]-4,5-dihydro-1,2-oxazol-3-yl}-4,4-difluoropyrrolidin-3-yl]methanesulfonamide]
115%	CS(=O)(=O)N[C@@H]1CN(C2=NOC(CO)(c3ncc(C(F)F)cc3-c3c(F)cccc3F)C2)CC1(F)F (stereo partly drawn) [Example 135, N-[(3R)-1-{5-[5-(difluoromethyl)-3-(2,6-difluorophenyl)pyridin-2-yl]-5-(hydroxymethyl)-4,5-dihydro-1,2-oxazol-3-yl}-4,4-difluoropyrrolidin-3-yl]methanesulfonamide]
